Test results as given in PMC12079475, “Identification, validation, and characterization of approved and investigational drugs interfering with the SARS‐CoV‐2 endoribonuclease Nsp15” (Protein Science : A Publication of the Protein Society, 2025).
Where a name gives a salt, the structure may show the parent alone. Read-outs that look alike come from different tables or passages of the source.

Assays:
[1] = molecular target: T1, SARS‐CoV‐2 Nsp15 (Severe acute respiratory syndrome coronavirus 2, UniProt P0DTD1); experiment: biochemical; type: biochemical; conditions: for loss of the inhibition potency in L‐cysteine buffer: 1 mM L‐cysteine buffer compared with DTT buffer; for inhibition at 10 µM: read-out: Inhibition % +L-Cys 10 µM
[2] = molecular target: T1, SARS‐CoV‐2 Nsp15; experiment: biochemical
[3] = 1 mM DTT buffer, confidence interval in brackets, read-out: IC50 + DTT (μM) (CI in μM)
[4] = DTT buffer (Table S1), read-out: IC50 +DTT
[5] = hit confirmation, 10 µM, DTT buffer
[6] = primary screen, 10 µM (Table S1)
[7] = primary screen, 10 μM compound, 1 mM DTT buffer, normalized to 50 μM Congo red (100%) and DMSO (0%)
[8] = hit confirmation, 10 µM, DTT buffer, read-out: HC inhibition % +DTT 10 µM
[9] = primary screen, 10 µM (Table S1), read-out: PS Inhibition % 10 µM
[10] = primary screen, 10 μM compound, 1 mM DTT buffer, normalized to 50 μM Congo red (100%) and DMSO (0%), read-out: PS inhibition % 10 μM (single point measurement)
[11] = 1 mM L-cysteine buffer, confidence interval in brackets, read-out: IC50 + L‐Cys (μM) (CI in μM)
[12] = L-cysteine buffer (Table S1), read-out: IC50 +L-Cys

Molecule | IC50 [2, 3] | IC50 [2, 4] | inhibition at 10 µM ([1]; 10 µM, L-cysteine buffer) | inhibition at 10 µM [2, 8] | inhibition at 10 µM [2, 9] | inhibition at 10 µM [2, 10] | IC50 [1, 11] | IC50 [1, 12] | also measured
BVT‐948 | 0.4 µM | 0.41 µM |  |  |  |  |  |  | Inhibition % +L-Cys 10 µM ([1]; 10 µM, L-cysteine buffer): -3,98%; loss of the inhibition potency in L‐cysteine buffer [1]: more than 50%; HC inhibition % +DTT 10 µM [2, 5]: 84,54%; PS Inhibition % 10 µM [2, 6]: 72,99%; PS inhibition % 10 μM (single point measurement) [2, 7]: 72.9%
CC(C)Nc1cccnc1N1CCN(C(=O)c2cc3cc(NS(C)(=O)=O)ccc3[nH]2)CC1 [Delavirdine (mesylate)] | 2.3 µM | 2.29 µM | 27.2% | 77.3% | 80.7% | 80.7% |  |  | loss of the inhibition potency in L‐cysteine buffer [1]: more than 50%
COc1cc2c(cc1OC)CN(CCc1ccc(NC(=O)c3cccc4c(=O)c5cccc(OC)c5[nH]c34)cc1)CC2 [Elacridar] | 4.9 µM | 4.99 µM | 15.9% | 72.7% | 68.3% | 68.3% |  |  | loss of the inhibition potency in L‐cysteine buffer [1]: more than 50%
COc1cccc(C=NCCN=Cc2cccc(OC)c2[O-])c1[O-].[Cl-].[Mn+3] [EUK 134] | 3.3 µM | 3.34 µM |  |  |  |  |  |  | Inhibition % +L-Cys 10 µM ([1]; 10 µM, L-cysteine buffer): 16,41%; loss of the inhibition potency in L‐cysteine buffer [1]: more than 50%; HC inhibition % +DTT 10 µM [2, 5]: 56,68%; PS Inhibition % 10 µM [2, 6]: 70,85%; PS inhibition % 10 μM (single point measurement) [2, 7]: 70.9%
COc1cc2c(NC3CCN(C)CC3)nc(N3CCCN(C)CC3)nc2cc1OCCOCCN(C)C [UNC0321] | 3.9 µM | 3.89 µM | 72.9% | 77.6% | 64% | 63.9% | 3.2 µM | 3.21 µM | 
CCCCCCCCN=c1ccn(CCCCCCCCCCn2ccc(=NCCCCCCCC)cc2)cc1 [Octenidine dihydrochloride] | 3.8 µM | 3.76 µM | 103% | 92.4% | 98.6% | 98.6% | 4.4 µM | 4.36 µM | 
COc1cc2c(NC3CCN(CC4CCCCC4)CC3)nc(N3CCCN(C(C)C)CC3)nc2cc1OCCCN1CCCCC1 [UNC0631] | 2.2 µM | 2.21 µM | 79.3% | 71.4% | 84.8% | 84.8% | 2.5 µM | 2.54 µM | 
Oc1ccc2ccccc2c1SSc1c(O)ccc2ccccc12 [IPA‐3] |  |  |  |  |  |  |  |  | Inhibition % +L-Cys 10 µM [1]: 51,34%; HC inhibition % +DTT 10 µM [2]: 89,23%; PS Inhibition % 10 µM [2]: 86,58%; PS inhibition % 10 μM (single point measurement) [2]: 86.6%; IC50 ([2]; read-out: IC50 + DTT (μM) (CI in μM)): 0.9 µM; IC50 ([2]; read-out: IC50 +DTT): 0.99 µM
COc1cccc2c1C(=O)c1c(O)c3c(c(O)c1C2=O)C[C@@](O)(C(=O)CO)C[C@@H]3O[C@H]1C[C@H](N)[C@@H](O)[C@H](C)O1 [Epirubicin hydrochloride] |  |  |  |  |  |  |  |  | IC50 ([1]; IC50 + L‐Cys (μM) (CI in μM)): 1.5 µM; IC50 ([1]; IC50 +L-Cys (µM)): 1.46 µM; IC50 ([2]; IC50 + DTT (μM) (CI in μM)): 3.4 µM; IC50 ([2]; IC50 +DTT (µM)): 3.37 µM
Cc1[nH]c2ccc(F)cc2c1-c1nc2c3cccnc3c3ncccc3c2[nH]1 [APTO‐253] | 7.8 µM | 7.75 µM |  |  |  |  |  |  | Inhibition % +L-Cys 10 µM ([1]; 10 µM, L-cysteine buffer): 48,13%; HC inhibition % +DTT 10 µM [2, 5]: 78,02%; PS Inhibition % 10 µM [2, 6]: 61,11%; PS inhibition % 10 μM (single point measurement) [2, 7]: 61.1%
COc1cc2c(NC3CCN(C)CC3)nc(N3CCCN(C)CC3)nc2cc1OCCCN(C)C [UNC0224] | 2.6 µM | 2.57 µM | 83.2% | 73.9% | 70.6% | 70.6% | 4 µM |  | 
NCCNc1ccc(NCCN)c2c1C(=O)c1ccncc1C2=O [Pixantrone (dimaleate)] | 5.2 µM | 5.23 µM | 72.8% | 77.5% | 82.3% | 82.3% | 4.4 µM | 4.37 µM | 
COc1cccc2c1C(=O)c1c(O)c3c(c(O)c1C2=O)C[C@@](O)(C(=O)CO)C[C@@H]3O[C@H]1C[C@H](N2CCO[C@H](OC)C2)[C@H](O)[C@H](C)O1 [Nemorubicin] | 2.6 µM | 2.61 µM | 69% | 69.2% | 65.2% | 65.2% | 1.3 µM |  | 
O=C1C(Cl)=C(NCCN2CCOCC2)C(=O)c2ncccc21 [NSC‐663284] | 0.5 µM | 0.48 µM |  |  |  |  |  |  | Inhibition % +L-Cys 10 µM ([1]; 10 µM, L-cysteine buffer): 53,53%; HC inhibition % +DTT 10 µM [2, 5]: 82,57%; PS Inhibition % 10 µM [2, 6]: 85,51%; PS inhibition % 10 μM (single point measurement) [2, 7]: 85.5%
CCOC(=O)CCNc1cc(N2CCc3ccccc3CC2)nc(-c2ccccn2)n1 [GSK J4 HCl] | 5.5 µM | 5.48 µM | 77.9% | 82.2% | 75.8% | 75.8% | 3.8 µM | 3.81 µM | 
O=C1c2c(O)ccc(O)c2C(=O)c2c(NCCNCCO)ccc(NCCNCCO)c21 [Mitoxantrone hydrochloride] |  |  |  |  |  |  |  |  | IC50 ([1]; IC50 + L‐Cys (μM) (CI in μM)): 0.5 µM; IC50 ([1]; IC50 +L-Cys (µM)): 0.47 µM; IC50 ([2]; IC50 + DTT (μM) (CI in μM)): 1.5 µM; IC50 ([2]; IC50 +DTT (µM)): 1.47 µM
Cc1cc2nc3ccc(N(C)C)cc3[s+]c2cc1N [Tolonium chloride] | 1.7 µM | 1.65 µM | 77.8% | 76.5% | 72% | 72% | 1.3 µM | 1.34 µM | 
C/C(=N\NC(=N)N)c1cc(NC(=O)CCCCCCCCC(=O)Nc2cc(/C(C)=N/NC(=N)N)cc(/C(C)=N/NC(=N)N)c2)cc(/C(C)=N/NC(=N)N)c1 [Semapimod] | 0.6 µM | 0.61 µM |  |  |  |  | 1 µM | 1.01 µM | Inhibition % +L-Cys 10 µM ([1]; 10 µM, L-cysteine buffer): 100,99%; HC inhibition % +DTT 10 µM [2, 5]: 99,81%; PS Inhibition % 10 µM [2, 6]: 106,91%; PS inhibition % 10 μM (single point measurement) [2, 7]: 106.9%
